Converted amounts (≈) assume the structure as drawn.
System: Mycobacterium tuberculosis H37Rv strains
Assay: In vitro assay for antimicrobial susceptibility (microplate Alamar blue MIC)
Assay type: cell-based
Conditions: Mycobacterium tuberculosis, H37RV, in vitro, Mycobacterium tuberculosis H37Rv strains; read-out: MIC (μg/mL) against H37Rv

Row | Structure (SMILES) | MIC
1 | Cc1ncccc1Nc1cc2nc3ccccc3n(-c3ccc(C(F)(F)F)cc3)c-2c/c1=N\C1CCCCC1 [TBI-708, 5-(4-Trifluoromethylphenyl)-3-cyclohexylimino-2-(2-methyl-3-pyridyl)amino-3,5-dihydrophenazine] | 0.028 µg/mL (≈ 0.0531 µM)
2 | Cc1ncccc1Nc1cc2nc3ccccc3n(-c3ccc(C(F)(F)F)cc3)c-2c/c1=N\C1CCC(O)CC1 (stereo not drawn) [TBI-709, 5-(4-Trifluoromethylphenyl)-3-(4-hydroxycyclohexyl)imino-2-(2-methyl-3-pyridyl)amino-3,5-dihydrophenazine] | 0.108 µg/mL (≈ 0.199 µM)
3 | COc1ncccc1Nc1cc2nc3ccccc3n(-c3ccc(C(F)(F)F)cc3)c-2c/c1=N\C1CCCCC1 [TBI-710, 5-(4-Trifluoromethylphenyl)-3-cyclohexylimino-2-(2-methoxy-3-pyridyl)amino-3,5-dihydrophenazine] | 0.03 µg/mL (≈ 0.0552 µM)
4 | CC(=O)Nc1ccc(Nc2cc3nc4ccccc4n(-c4ccc(C(F)(F)F)cc4)c-3c/c2=N\C(C)C)cn1 [TBI-711, 5-(4-Trifluoromethylphenyl)-3-(1-methylethyl)imino-2-(6-acetamino-3-pyridyl)amino-3,5-dihydrophenazine] | 0.11 µg/mL (≈ 0.207 µM)
5 | CC(=O)Nc1ccc(Nc2cc3nc4ccccc4n(-c4ccc(C(F)(F)F)cc4)c-3c/c2=N\C2CCOCC2)cn1 [TBI-712, 5-(4-Trifluoromethylphenyl)-3-(4-tetrahydropyranyl)imino-2-(6-acetamino-3-pyridyl)amino-3,5-dihydrophenazine] | 0.158 µg/mL (≈ 0.276 µM)
6 | CC(=O)Nc1ccc(Nc2cc3nc4ccccc4n(-c4ccc(C(F)(F)F)cc4)c-3c/c2=N\C2CCCCC2)cn1 [TBI-713, 5-(4-Trifluoromethylphenyl)-3-cyclohexylimino-2-(6-acetamino-3-pyridyl)amino-3,5-dihydrophenazine] | 0.022 µg/mL (≈ 0.0386 µM)
7 | CC(=O)Nc1ccc(Nc2cc3nc4ccccc4n(-c4ccc(C(F)(F)F)cc4)c-3c/c2=N\C2CCC(O)CC2)cn1 (stereo not drawn) [TBI-714, 5-(4-Trifluoromethylphenyl)-3-(4-hydroxycyclohexyl)imino-2-(6-acetamino-3-pyridyl)amino-3,5-dihydrophenazine] | 0.686 µg/mL (≈ 1.17 µM)
8 | COC1CCC(/N=c2\cc3n(-c4ccc(C(F)(F)F)cc4)c4ccccc4nc-3cc2Nc2ccc(NC(C)=O)nc2)CC1 (stereo not drawn) [TBI-715, 5-(4-Trifluoromethylphenyl)-3-(4-methoxycyclohexyl)imino-2-(6-acetamino-3-pyridyl)amino-3,5-dihydrophenazine] | 0.06 µg/mL (≈ 0.0999 µM)
9 | Cc1ccc(Nc2cc3nc4ccccc4n(-c4ccc(C(F)(F)F)cc4)c-3c/c2=N\C2CC2)cn1 [TBI-716, 5-(4-Trifluoromethylphenyl)-3-cyclopropylimino-2-(6-methyl-3-pyridyl)amino-3,5-dihydrophenazine] | 0.041 µg/mL (≈ 0.0844 µM)
10 | Cc1ccc(Nc2cc3nc4ccccc4n(-c4ccc(C(F)(F)F)cc4)c-3c/c2=N\C2CCCCC2)cn1 [TBI-717, 5-(4-Trifluoromethylphenyl)-3-cyclohexylimino-2-(6-methyl-3-pyridyl)amino-3,5-dihydrophenazine] | 0.015 µg/mL (≈ 0.0284 µM)
11 | COc1ncccc1Nc1cc2nc3ccccc3n(-c3ccc(C(F)(F)F)cc3)c-2c/c1=N\C1CC1 [TBI-718, 5-(4-Trifluoromethylphenyl)-3-cyclopropylimino-2-(2-methoxy-3-pyridyl)amino-3,5-dihydrophenazine] | 0.015 µg/mL (≈ 0.0299 µM)
12 | COc1ncccc1Nc1cc2nc3ccccc3n(-c3ccc(C(F)(F)F)cc3)c-2c/c1=N\C1CCC(O)CC1 (stereo not drawn) [TBI-719, 5-(4-Trifluoromethylphenyl)-3-(4-hydroxycyclohexyl)imino-2-(2-methoxy-3-pyridyl)amino-3,5-dihydrophenazine] | 0.204 µg/mL (≈ 0.365 µM)
13 | CC(C)/N=c1\cc2n(-c3ccccc3C(F)(F)F)c3ccccc3nc-2cc1Nc1cccnc1 [TBI-720, 5-(2-Trifluoromethylphenyl)-3-(1-methylethyl)imino-2-(3-pyridyl)amino-3,5-dihydrophenazine] | 0.214 µg/mL (≈ 0.452 µM)
14 | Cc1cncc(Nc2cc3nc4ccccc4n(-c4ccc(C(F)(F)F)cc4)c-3c/c2=N\C(C)C)c1 [TBI-721, 5-(4-Trifluoromethylphenyl)-3-(1-methylethyl)imino-2-(5-methyl-3-pyridyl)amino-3,5-dihydrophenazine] | 0.082 µg/mL (≈ 0.168 µM)
15 | Cc1cncc(Nc2cc3nc4ccccc4n(-c4ccc(C(F)(F)F)cc4)c-3c/c2=N\C2CCCCC2)c1 [TBI-722, 5-(4-Trifluoromethylphenyl)-3-cyclohexylimino-2-(5-methyl-3-pyridyl)amino-3,5-dihydrophenazine] | 0.031 µg/mL (≈ 0.0588 µM)
16 | Cc1cncc(Nc2cc3nc4ccccc4n(-c4ccc(C(F)(F)F)cc4)c-3c/c2=N\C2CCOCC2)c1 [TBI-723, 5-(4-Trifluoromethylphenyl)-3-(4-tetrahydropyranyl)imino-2-(5-methyl-3-pyridyl)amino-3,5-dihydrophenazine] | 0.041 µg/mL (≈ 0.0774 µM)
17 | COC1CCC(/N=c2\cc3n(-c4ccc(C(F)(F)F)cc4)c4ccccc4nc-3cc2Nc2cncc(C)c2)CC1 (stereo not drawn) [TBI-724, 5-(4-Trifluoromethylphenyl)-3-(4-methoxycyclohexyl)imino-2-(5-meth-3-pyridyl)amino-3,5-dihydrophenazine] | 0.03 µg/mL (≈ 0.0538 µM)
18 | Cc1cncc(Nc2cc3nc4ccccc4n(-c4ccc(C(F)(F)F)cc4)c-3c/c2=N\C2CC2)c1 [TBI-725, 5-(4-Trifluoromethylphenyl)-3-cyclopropylimino-2-(5-methyl-3-pyridyl)amino-3,5-dihydrophenazine] | 0.031 µg/mL (≈ 0.0638 µM)
19 | Cc1cncc(Nc2cc3nc4ccccc4n(-c4ccc(C(F)(F)F)cc4)c-3c/c2=N\C2CCC2)c1 [TBI-726, 5-(4-Trifluoromethylphenyl)-3-cyclobutylimino-2-(5-methyl-3-pyridyl)amino-3,5-dihydrophenazine] | 0.058 µg/mL (≈ 0.116 µM)
20 | Cc1cncc(Nc2cc3nc4ccccc4n(-c4ccc(C(F)(F)F)cc4)c-3c/c2=N\C2CCC(O)CC2)c1 (stereo not drawn) [TBI-727, 5-(4-Trifluoromethylphenyl)-3-(4-hydroxycyclohexyl)imino-2-(5-methyl-3-pyridyl)amino-3,5-dihydrophenazine] | 0.405 µg/mL (≈ 0.745 µM)
21 | COc1ncccc1Nc1cc2nc3ccccc3n(-c3ccc(C(F)(F)F)cc3)c-2c/c1=N\C1CCC1 [TBI-728, 5-(4-Trifluoromethylphenyl)-3-cyclobutylimino-2-(2-methoxy-3-pyridyl)amino-3,5-dihydrophenazine] | 0.033 µg/mL (≈ 0.064 µM)
22 | Cc1ncccc1Nc1cc2nc3ccccc3n(-c3ccc(C(F)(F)F)cc3)c-2c/c1=N\C1CC1 [TBI-729] | 0.186 µg/mL (≈ 0.383 µM)
23 | CC(C)/N=c1\cc2n(-c3cccc(C(F)(F)F)c3)c3ccccc3nc-2cc1Nc1cccnc1 [TBI-730, 5-(3-Trifluoromethylphenyl)-3-(1-methylethyl)imino-2-(3-pyridyl)amino-3,5-dihydrophenazine] | 0.205 µg/mL (≈ 0.433 µM)
24 | COc1ccc(Nc2cc3nc4ccccc4n(-c4ccc(C(F)(F)F)cc4)c-3c/c2=N\C(C)C)cn1 [TBI-731] | 0.348 µg/mL (≈ 0.691 µM)
25 | COc1ccc(Nc2cc3nc4ccccc4n(-c4ccc(C(F)(F)F)cc4)c-3c/c2=N\C2CCCCC2)cn1 [TBI-732] | 0.113 µg/mL (≈ 0.208 µM)
26 | COc1ccc(Nc2cc3nc4ccccc4n(-c4ccc(C(F)(F)F)cc4)c-3c/c2=N\C2CCOCC2)cn1 [TBI-733, 5-(4-Trifluoromethylphenyl)-3-(4-tetrahydropyranyl)imino-2-(6-methoxy-3-pyridyl)amino-3,5-dihydrophenazine] | 0.111 µg/mL (≈ 0.203 µM)
27 | Cc1ncccc1Nc1cc2nc3ccccc3n(-c3ccc(C(F)(F)F)cc3)c-2c/c1=N\C1CCC1 [TBI-734, 5-(4-Trifluoromethylphenyl)-3-cyclobutylimino-2-(2-methyl-3-pyridyl)amino-3,5-dihydrophenazine] | 0.014 µg/mL (≈ 0.028 µM)

Reference: patent publication US8716292B2, “Riminophenazines with 2-(heteroaryl)amino substituents and their anti-microbial activity” (priority 2010, dated 2014)
